Tested on: Mitochondria-located protein genes
Assay: DNA chip mRNA expression in yeast, mitochondria-located protein genes (Table 2)
Format: cell-based, Saccharomyces cerevisiae S288C
Details: cells incubated two hours with the chemical substance
Summary of the method: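 Untreated cultures served as reference for log-phase S288C yeast given a growth-inhibiting, non-lethal toxicant dose for 2 h at 25° C. in YPD. Gene expression was measured on a whole-genome DNA chip from Cy3/Cy5-labeled cDNA.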

Measured: The level of expressed mRNA in the presence of chemical substance/The level of expressed mRNA in the absence of chemical substance

Cl[C@H]1[C@H](Cl)[C@@H](Cl)[C@@H](Cl)[C@H](Cl)[C@H]1Cl [(7), γ-hexachlorocyclohexane]
8.0: yeast gene YBL038W
1.0: yeast gene YAL039C | yeast gene YBL022C | yeast gene YBR091C | yeast gene YDL198C | yeast gene YDR298C | yeast gene YGL191W | yeast gene YGR174C | yeast gene YJR045C | yeast gene YJR121W | yeast gene YLR038C | yeast gene YOR142W
2.3: yeast gene YMR035W
1.2: yeast gene YBR185C | yeast gene YBR282W | yeast gene YCR046C | yeast gene YDR347W | yeast gene YML054C | yeast gene YMR089C | yeast gene YMR267W | yeast gene YNL055C | yeast gene YOR150W | yeast gene YPL134C | yeast gene YPL135W | yeast gene YPR037C
0.7: yeast gene YEL024W | yeast gene YHR008C | yeast gene YJR077C | yeast gene YPL215W
1.1: yeast gene YBR003W | yeast gene YDL181W | yeast gene YDR377W | yeast gene YGL018C | yeast gene YLR295C | yeast gene YNL073W
0.3: yeast gene YLL041C
2.1: yeast gene YGR028W | yeast gene YKL194C
1.5: yeast gene YBR044C | yeast gene YBR221C | yeast gene YKL016C | yeast gene YKL170W | yeast gene YOR187W | yeast gene YPR067W | yeast gene YPR134W
3.7: yeast gene YGR008C
1.8: yeast gene YCR083W | yeast gene YLR259C | yeast gene YML129C | yeast gene YPR047W
0.6: yeast gene YDR178W | yeast gene YEL039C | yeast gene YGL187C | yeast gene YJL102W | yeast gene YKL148C | yeast gene YLR304C | yeast gene YNL104C | yeast gene YNL256W
2.2: yeast gene YIL155C
1.4: yeast gene YBR251W | yeast gene YCL057W | yeast gene YFL016C | yeast gene YKL003C | yeast gene YNL071W | yeast gene YOR316C | yeast gene YPR024W
0.8: yeast gene YDL067C | yeast gene YJL166W | yeast gene YML120C | yeast gene YMR152W | yeast gene YMR203W | yeast gene YPL040C
3.9: yeast gene YDR258C | yeast gene YGR244C
1.3: yeast gene YDR079W | yeast gene YGR062C | yeast gene YOR130C | yeast gene YPL262W
2.5: yeast gene YOR037W
0.9: yeast gene YBL030C | yeast gene YBL099W | yeast gene YGR082W | yeast gene YLR348C
2.0: yeast gene YBR122C
1.9: yeast gene YMR023C
1.7: yeast gene YDR231C | yeast gene YGR076C | yeast gene YJL096W | yeast gene YMR083W | yeast gene YOL096C | yeast gene YOR020C
0.5: yeast gene YDR529C | yeast gene YJL133W | yeast gene YKL141W | yeast gene YKR066C | yeast gene YOR176W
6.9: yeast gene YKL142W
1.6: yeast gene YER178W | yeast gene YJL180C | yeast gene YOR100C
